Assay results from patent US10266535B2, “Inhibitor of FLT3 kinase and use thereof” (HEFEI INSTITUTES OF PHYSICAL SCIENCE, CHINESE ACADEMY OF …, priority 2015, dated 2019).

Tests used:
[1] = system: TEL-FLT3-BaF3 (stably expressing FLT3 kinase); experiment: Cell proliferation, Cell Titer-Glo, TEL-FLT3-BaF3; assay type: cell-based; conditions: Mus musculus, 72 h, read-out: TEL-FLT3-BaF3 IC50 [μM]
Protocol: (§1) The above cell lines were constructed by our laboratory.
(§2) The number of viable cells was determined by quantification of ATP in living cells using the Cell Titer-Glo® (Promega, USA) chemiluminescence cell viability assay kit.

[2] = system: MV4-11 (expressing FLT3/ITD mutant gene); experiment: Cell proliferation, Cell Titer-Glo, MV4-11; assay type: cell-based; conditions: Homo sapiens, MV4-11, 72 h, read-out: MV4-11 IC50 [μM]
Procedure, shortened: (§3)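 Read-out: luminescence from ATP in live cells (CellTiter-Glo), taken as viable cell number. Cell lines were built in-house.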

[3] = system: MV4-11 cell lines; experiment: Cell apoptosis, Western Blot of PARP and Caspase 3 cleavage, MV4-11; assay type: cell-based, human; conditions: after 24 hours
Description: (§4) Western Blot was used to detect the effects of different concentrations of drugs on protein cleavage of DNA repair enzyme, poly ADP-ribose polymerase PARP and cysteinyl aspartate specific proteinase Caspase 3 at different time intervals (FIG. 3).

[4] = system: pro-B cell BaF3; experiment: Cell proliferation, Cell Titer-Glo, BaF3; assay type: cell-based; conditions: Mus musculus, incubated for 72 hours
Procedure, shortened: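 Chemiluminescent ATP detection (CellTiter-Glo) gave the number of viable cells, used as the measure of proliferation in these laboratory-made BaF3 lines.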

[5] = system: TEL-BaF3-FLT3-D835Y (stably expressing FLT3 D835Y mutant activated kinase); experiment: Cell proliferation, Cell Titer-Glo, TEL-BaF3-FLT3-D835Y; assay type: cell-based; conditions: Mus musculus, 72 h, read-out: TEL-BaF3-FLT3-D835Y IC50 [μM]
Procedure, shortened: (§5)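 Cells from the in-house-constructed BaF3 lines were grown with compound. Viability was then scored by chemiluminescent detection of cellular ATP.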

[6] = system: U937 (expressing wild-type FLT3 gene); experiment: Cell proliferation, Cell Titer-Glo, U937; assay type: cell-based, human; conditions: Homo sapiens, U-937, 72 h, read-out: U937 IC50 [μM], incubated for 72 hours
Procedure, shortened: as §3

[7] = system: MOLM-13 cell lines; experiment: Cell apoptosis, Western Blot of PARP and Caspase 3 cleavage, MOLM-13; assay type: cell-based, human; conditions: MOLM-13, 0.1 μM
Description: as §4

[8] = system: Signaling pathways of FLT3 in MV4-11 and MOLM-14 cell lines; experiment: Effects on upstream and downstream signaling pathways of FLT3 in cells; assay type: cell-based, human; conditions: for C-Myc (degradation; for AC220 phosphorylation) / phosphorylation of STAT5 / phosphorylation of protein kinase FLT3: treated for 4 hours
[9] = system: TEL-cKIT-BaF3 (stably expressing cKIT kinase); experiment: Cell proliferation, Cell Titer-Glo, TEL-cKIT-BaF3; assay type: cell-based; conditions: Mus musculus; incubated for 72 hours
Procedure, shortened: as §5

[10] = system: TPR-MET-BaF3 (stably expressing MET kinase); experiment: Cell proliferation, Cell Titer-Glo, TPR-MET-BaF3; assay type: cell-based; conditions: Mus musculus; incubated for 72 hours
Procedure, shortened: as §5

[11] = system: BaF3-FLT3-ITD-F691L (stably expressing FLT3/ITD F691L mutant activated kinase); experiment: Cell proliferation, Cell Titer-Glo, BaF3-FLT3-ITD-F691L; assay type: cell-based; conditions: Mus musculus, 72 h, read-out: BaF3-FLT3-ITD-F691L IC50 [μM]
Protocol: as §1, §2

[12] = system: TEL-BaF3-FLT3/ITD (stably expressing FLT3/ITD mutant activated kinase); experiment: Cell proliferation, Cell Titer-Glo, TEL-BaF3-FLT3/ITD; assay type: cell-based, mouse; conditions: Mus musculus, 72 h, read-out: TEL-BaF3-FLT3/ITD IC50 [μM], incubated for 72 hours
Procedure, shortened: as §5

[13] = system: TEL-BaF3-BLK (stably expressing BLK kinase); experiment: Cell proliferation, Cell Titer-Glo, TEL-BaF3-BLK; assay type: cell-based; conditions: Mus musculus; incubated for 72 hours
Procedure, shortened: as §5

[14] = system: TEL-BaF3-BMX (stably expressing BMX kinase); experiment: Cell proliferation, Cell Titer-Glo, TEL-BaF3-BMX; assay type: cell-based; conditions: Mus musculus; incubated for 72 hours
Procedure, shortened: as §5

[15] = system: MV4-11 cell lines carrying FLT3/ITD mutant gene; experiment: Cell cycle distribution by flow cytometry; assay type: cell-based, human; conditions: MV4-11, 0.1 μM, 24 hours
[16] = system: BaF3-FLT3-ITD-D835Y (stably expressing FLT3/ITD D835Y mutant activated kinase); experiment: Cell proliferation, Cell Titer-Glo, BaF3-FLT3-ITD-D835Y; assay type: cell-based; conditions: Mus musculus, 72 h, read-out: BaF3-FLT3-ITD-D835Y IC50 [μM]
Protocol: as §1, §2

[17] = system: MOLM-14 (expressing FLT3/ITD mutant gene and wild-type FLT3 gene); experiment: Cell proliferation, Cell Titer-Glo, MOLM-14; assay type: cell-based; conditions: Homo sapiens, MOLM-14, 72 h, read-out: MOLM-14 IC50 [μM]
Procedure, shortened: as §3

[18] = system: MOLM-14 cells; experiment: Nude mouse subcutaneous tumor model with MOLM-14 cells; assay type: in vivo; conditions: oral gavage, 2 to 3 weeks
Protocol: More than 30 mice (5-week-old) (Balb/c-nu female mice, purchased from Shanghai Snake Experimental Animal Co., Ltd.) were inoculated subcutaneously with MOLM-14 cells in 1×10^7 cells/mouse, the changes in body weight and tumor volume were recorded daily (tumor volume=Tumor length×tumor width^2/2).

[19] = system: MOLM-13 (expressing FLT3/ITD mutant gene and wild-type FLT3 gene); experiment: Cell proliferation, Cell Titer-Glo, MOLM-13; assay type: cell-based; conditions: Homo sapiens, MOLM-13, 72 h, read-out: MOLM-13 IC50 [μM]
Procedure, shortened: as §3

[20] = system: TEL-BaF3-EGFR (stably expressing EGFR kinase); experiment: Cell proliferation, Cell Titer-Glo, TEL-BaF3-EGFR; assay type: cell-based; conditions: Mus musculus; incubated for 72 hours
Protocol: as §1, §2

[21] = system: BaF3-tel-cKit-N882K (stably expressing cKIT N882K mutant activated kinase); experiment: Cell proliferation, Cell Titer-Glo, BaF3-tel-cKit-N882K; assay type: cell-based; conditions: Mus musculus; incubated for 72 hours
Protocol: as §1, §2

[22] = system: TEL-JAK1-BaF3 (stably expressing JAK1 kinase); experiment: Cell proliferation, Cell Titer-Glo, TEL-JAK1-BaF3; assay type: cell-based; conditions: Mus musculus; incubated for 72 hours
Procedure, shortened: as §5

[23] = system: BaF3-tel-cKit-D816V (stably expressing cKIT D816V mutant activated kinase); experiment: Cell proliferation, Cell Titer-Glo, BaF3-tel-cKit-D816V; assay type: cell-based; conditions: Mus musculus; incubated for 72 hours
Protocol: as §1, §2

[24] = target: BTK protein kinase (Homo sapiens (Human), UniProt Q06187); experiment: In vitro inhibition activity (enzymatic activity), ADP-Glo, BTK; assay type: biochemical; conditions: ATP 10 μM
Chain of BTK protein kinase (Q06187 whole entry): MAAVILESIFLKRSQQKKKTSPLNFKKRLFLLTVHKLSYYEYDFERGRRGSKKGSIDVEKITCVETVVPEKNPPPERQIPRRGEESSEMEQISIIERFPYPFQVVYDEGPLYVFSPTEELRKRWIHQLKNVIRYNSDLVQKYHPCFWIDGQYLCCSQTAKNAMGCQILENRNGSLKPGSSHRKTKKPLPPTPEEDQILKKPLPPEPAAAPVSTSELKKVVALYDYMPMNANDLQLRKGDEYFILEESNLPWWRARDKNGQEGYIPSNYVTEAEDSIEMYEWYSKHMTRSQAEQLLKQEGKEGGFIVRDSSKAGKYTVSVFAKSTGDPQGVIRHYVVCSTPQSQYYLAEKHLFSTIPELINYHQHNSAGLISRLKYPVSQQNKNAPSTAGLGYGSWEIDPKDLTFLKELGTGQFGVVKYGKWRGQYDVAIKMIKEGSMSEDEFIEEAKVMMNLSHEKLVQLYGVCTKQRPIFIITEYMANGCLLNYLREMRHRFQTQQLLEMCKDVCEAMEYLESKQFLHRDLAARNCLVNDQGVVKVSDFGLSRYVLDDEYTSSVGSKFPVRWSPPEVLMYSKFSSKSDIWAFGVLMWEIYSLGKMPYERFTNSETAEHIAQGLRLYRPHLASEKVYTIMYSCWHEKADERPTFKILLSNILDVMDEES

[25] = system: BaF3-tel-cKit-T670I (stably expressing cKIT T670I mutant activated kinase); experiment: Cell proliferation, Cell Titer-Glo, BaF3-tel-cKit-T670I; assay type: cell-based; conditions: Mus musculus; incubated for 72 hours
Protocol: as §1, §2

CC(C)C[C@@H](N)C(=O)N[C@H]1CC[C@@H](n2nc(-c3ccc(Oc4ccccc4)cc3)c3c(N)ncnc32)CC1.Cl (stereo in doubt) [Compound 84, (R)-2-amino-N-(4-(4-amino-3-(4-phenoxyphenyl)-1H-pyrazolo[3,4-d]pyrimidin-1-yl)cis-1,4-cyclohexyl)-4-methylpentanamide hydrochloride]
IC50 [1]: 0.013 µM
IC50 [2]: 0.01 µM
cleavage of Caspase 3 ([3]; MV 4-11, 0.03 μM): cleavage
cleavage of poly ADP-ribose polymerase PARP ([3]; MV 4-11, 0.03 μM): relatively significant cleavage
IC50 [4]: 750 nM
IC50 [5]: 0.002 µM
IC50 [6]: 3.3 µM
cleavage of Caspase 3 ([7]; after 24 hours): very significant cleavage
cleavage of poly ADP-ribose polymerase PARP ([7]; after 24 hours): very significant cleavage
efficacy compared with Control Compound AC220 ([8]; AC220 at 0.1 μM): better efficacy
C-Myc (degradation; for AC220 phosphorylation) [8]: significant effects on the degradation
phosphorylation of STAT5 [8]: very strong inhibitory effects
phosphorylation of protein kinase FLT3 [8]: strongly inhibited
IC50 [9]: 6.1 µM
IC50 [10]: 2900 nM
IC50 [11]: 0.43 µM
IC50 [12]: < 0.0003 µM
IC50 [13]: 3 nM
IC50 [14]: 63 nM
number of cells captured in G0-G1 phase [15]: 89.92%
IC50 [16]: 0.28 µM
IC50 [17]: 0.002 µM

CN(C)CC(=O)N1CCC[C@@H](n2nc(-c3ccc(Oc4ccccc4)cc3)c3c(N)ncnc32)C1 [Compound 22, (R)-1-(3-(4-amino-(4-phenoxyphenyl)-1H-pyrazolo[3,4-d]pyrimidin-1-yl)piperidin-1-yl)-2-(dimethylamino)ethanone]
tumor growth of the mice ([18]; 12.5-50 mg/kg): significantly inhibited
tumor volume growth of the mice ([18]; dose not specified): significantly slowed down
IC50 [2]: 0.022 µM
cleavage of Caspase 3 ([3]; MV 4-11, 0.1 μM): very significant cleavage
cleavage of poly ADP-ribose polymerase PARP ([3]; MV 4-11, 0.1 μM): significant cleavage
IC50 [4]: 4900 nM
IC50 [6]: 9.7 µM
cleavage of Caspase 3 ([7]; after 12 hours): very significant cleavage
cleavage of poly ADP-ribose polymerase PARP ([7]; after 12 hours): very significant cleavage
IC50 [19]: 0.021 µM
C-Myc (degradation; for AC220 phosphorylation) [8]: significant effects on the degradation
phosphorylation of STAT5 [8]: very strong inhibitory effects
phosphorylation of protein kinase FLT3 [8]: strongly inhibited
IC50 [20]: 1800 nM
IC50 [21]: 1200 nM
IC50 [9]: 1.9 µM
IC50 [10]: 2200 nM
IC50 [22]: 3.8 µM
IC50 [23]: 1000 nM
IC50 [11]: 0.22 µM
IC50 [24]: 190 nM
IC50 [12]: 0.011 µM
IC50 [13]: 940 nM
IC50 [14]: 280 nM
number of cells captured in G0-G1 phase [15]: 95.78%
IC50 [25]: 3.6 µM
IC50 [16]: 0.17 µM
IC50 [17]: 0.042 µM
